In this assay the test system is Cochliobolus miyabeanus. The assay is described as follows: activity against brown spot of rice caused by Cochliobolus miyabeanus, protective application (potted rice seedlings). The class given is in vivo. Conditions: individual active compound, rice cultivar Tai-Nong 67, protective spray, evaluated after six days. On the procedure:
The active compounds, separately or jointly, were prepared as a stock solution with 0.25% by weight of active compound in acetone or DMSO. 1% by weight of the emulsifier Uniperol® EL (wetting agent having emulsifying and dispersing action based on ethoxylated alkylphenols) was added to this solution, and the solution was diluted with water to the desired concentration.
Use example—activity against brown spot of rice caused by Cochliobolus miyabeanus, protective application
Leaves of potted rice seedlings of the cultivar “Tai-Nong 67” were sprayed to runoff point with an aqueous suspension of the concentration of active compound stated below. The next day, the plants were inoculated with an aqueous spore suspension of Cochliobolus miyabeanus. The test plants were then placed in climatized chambers at 22-24° C. and 95-99% relative atmospheric humidity for six days. The extent of the development of the infection on the leaves was then determined visually.
Evaluation was carried out by determining the percentage of infected leaf area. These percentages were converted into efficacies.
The efficacy (E) is calculated as follows using Abbot's formula: E=(1−α/β)·100 • α corresponds to the fungicidal infection of the treated plants in % and • β corresponds to the fungicidal infection of the untreated (control) plants in %
An efficacy of 0 means that the infection level of the treated plants corresponds to that of the untreated control plants; an efficacy of 100 means that the treated plants were not infected.
The expected efficacies of mixtures of active compounds are determined using Colby's formula (R. S. Colby, Weeds, 15, 20-22, 1967) and compared with the observed efficacies.
Colby's formula: E=x+y−x·y/100 • E expected efficacy, expressed in % of the untreated control, when using the mixture of the active compounds A and B at the concentrations a and b • x efficacy, expressed in % of the untreated control, when using the active compound A at the concentration a • y efficacy, expressed in % of the untreated control, when using the active compound B at the concentration b

The structures appear in SMILES notation.

Consider `C[C@H](Nc1c(-c2c(F)cc(F)cc2F)c(Cl)nc2ncnn12)C(F)(F)F` [comparative compound B], for which the “Efficacy in % of the untreated control” value reads like this: (1 ppm in the spray liquor) 0%; (4 ppm in the spray liquor) 16%.
`CC1CCN(c2c(-c3c(F)cccc3F)c(Cl)nc3ncnn23)CC1` [comparative compound A]: the “Efficacy in % of the untreated control” value reads like this: (1 ppm in the spray liquor) 28%; (4 ppm in the spray liquor) 40%.
Consider `S1SSSSSSS1` [II (sulfur), sulfur], for which the “Efficacy in % of the untreated control” value is reported as 4% (1 ppm in the spray liquor) and 4% (4 ppm in the spray liquor).
For `CC1CCN(c2c(-c3c(F)cc(F)cc3F)c(Cl)nc3ncnn23)CC1` [I, 5-chloro-7-(4-methylpiperidin-1-yl)-6-(2,4,6-trifluorophenyl)-[1,2,4]tri-azolo[1,5-a]pyrimidine], the “Efficacy in % of the untreated control” value came to 4% (1 ppm in the spray liquor) and 28% (4 ppm in the spray liquor).
